Measured values from US20110104301A1, “METHODS OF REDUCING PAIN AND INFLAMMATION” (Georgetown University, A Congressionally Chartered …, priority 2008, published 2011).
“Also recorded” adds a separate entry of the source.

Tests used:
[1] = target: T1, TRPA1 (Rattus norvegicus, UniProt Q6RI86); assay: Whole-cell patch-clamp of TRPA1-expressing HEK293 cells; type: cell-based; settings: for Activation of TRPA1 currents by VGAs: 0.9 mM, voltage-clamped HEK293 cells
T1 construct: expressed in transfected cells; host or cells: HEK 293F
Protocol: Electrophysiology. […] Whole-cell and single-channel patch-clamp recordings were performed by using an EPC8 amplifier (HEKA Electronics). For whole-cell and excised patch recordings the bath solution contained 140 mMNaCl, 4 mMKCl, 1 mMMgCl2, 1.2 mMCaCl2, 10 mMHepes, 10 mM glucose, pH 7.3. For cell-attached experiments, NaCl was replaced with KCl in the bath solution. […] For neuronal recording NaCl was replaced with K-gluconate (plus 1 mMATP, 0.2 mM GTP). Solutions were applied via a gravity-fed system. […] Voltage-dependent properties were measured as described in Matt and Ahern, J. Physiol. […] The baseline currents under control conditions were subtracted. For cell-attached experiments, peak amplitudes were measured from all-points histograms, and open probability was measured as NPo>750 ms. Defolliculated Xenopus laevis oocytes were injected with ≈10 ng of hTRPA1 (gift of Ardem Patapoutian, The Scripps Research Institute, La Jolla, Calif.).
Volatile General Anesthetics and Chemicals. Saturated stock solutions of volatile GAs were prepared in gas-tight bottles by dissolving excess anesthetic agents in bath solutions overnight. From these stock solutions fresh dilutions were made up every 40-60 min. Concentrations of GAs in the bath solutions were verified by using a modified head-space gas chromatography method. […] Alcohols with <6 carbons were dissolved directly into extracellular solution, and alcohols containing 6 carbons or more were dissolved in DMSO and then diluted into extracellular solutions that were sonicated for 20 min. All other drugs were prepared as stock solutions in DMSO or ethanol and diluted into physiological solution before experiments.

[2] = target: T1, TRPA1; assay: Single-channel recordings of TRPA1 (outside-out / cell-attached patches); type: cell-based; settings: for TRPA1 single-channel conductance in presence of VGA: 0.23 mM isoflurane, 0.9 mM desflurane, reduced from ≈110 pS; for Single TRPA1 channel activity: cell-free patches
Protocol: (§1) Electrophysiology. HEK 293F cells were transfected with rat TRPV1, TRPA1, and TRPM8 (gift of David Julius, University of California, San Francisco). Dorsal root ganglia were cultured from adult mice (C57B16/J wild type and TRPV1-null, and mixed B6/129 background TRPA1-null) in Neurobasal +2% B-27 medium (Invitrogen), 0.1% L-glutamine and 1% penicillin/streptomycin. Whole-cell and single-channel patch-clamp recordings were performed by using an EPC8 amplifier (HEKA Electronics). For whole-cell and excised patch recordings the bath solution contained 140 mMNaCl, 4 mMKCl, 1 mMMgCl2, 1.2 mMCaCl2, 10 mMHepes, 10 mM glucose, pH 7.3. For cell-attached experiments, NaCl was replaced with KCl in the bath solution. The pipette solution contained 140 mM NaCl or KCl, 10 mM Hepes, 5 mM EGTA, pH 7.3. For neuronal recording NaCl was replaced with K-gluconate (plus 1 mMATP, 0.2 mM GTP). Solutions were applied via a gravity-fed system. Separate outlets were used to apply capsaicin and AITC solutions to avoid contamination. Voltage-dependent properties were measured as described in Matt and Ahern, J. Physiol. 585:469-482 (2007). Current-voltage measurements comprised a 200-ms ramp from −150 mV to +200 mV. The baseline currents under control conditions were subtracted. For cell-attached experiments, peak amplitudes were measured from all-points histograms, and open probability was measured as NPo>750 ms. Defolliculated Xenopus laevis oocytes were injected with ≈10 ng of hTRPA1 (gift of Ardem Patapoutian, The Scripps Research Institute, La Jolla, Calif.). Oocytes were placed in a Perspex chamber and continuously superfused (5 ml min^−1) with Ca^2+-free solution containing 100 mM NaCl, 2.5 mM KCl, 5 mM Hepes, 1 mM MgC12 and titrated to pH 7.3 with ˜5 mM NaOH.

[3] = target: TRPV1 (Rattus norvegicus, UniProt O35433); assay: Voltage-clamp of TRPV1-expressing Xenopus oocytes (capsaicin, protons, heat); type: cell-based; settings: for Temperature threshold of TRPV1 heat activation: control ~46° C.
Protocol: Oocyte electrophysiology. […] Oocytes were placed in a Perspex chamber and continuously superfused (5 ml min-1) with Ca2+-free solution containing (in mM): 100 NaCl, 2.5 KCl, 5 HEPES, 1 MgCl2 and titrated to pH 7.3 with ˜5 mM NaOH. For solutions <pH 6.0, HEPES was replaced with either 5 mM MES or 5 mM sodium citrate. Oocytes were routinely voltage-clamped at −60 mV at 22-23° C. For heat activation, bath temperature was raised from ˜22-50° C. over ˜100 s using an in-line solution heater (Warner Instruments). The temperature was continuously monitored with a probe placed within 2 mm of the oocyte. The temperature-activation threshold was defined as a 20% increase in current above baseline.
Volatile general anesthetics. Saturated stock solutions of volatile general anesthetics (VGAs) were prepared in gas-tight bottles by dissolving excess anesthetic agents in bath solutions and stirring vigorously overnight. From these stock solutions fresh dilutions were made up every 40-60 minutes. Concentrations of volatile anesthetics in the bath solutions were verified using a modified head-space gas chromatography method. The gas chromatograph (Carlo Erba, Milan, Italy) was equipped with a flame ionization detector (FID) and mass spectrometer. The carrier gas was hydrogen (60 kPa column head pressure) and the fused silica capillary column, coated with polysiloxane SE-30, was 25 m×0.25 mm. Injector temperature was 250° C., FID temperature was 300° C. and the oven was maintained at 90° C. Standards were prepared from a mixture of halothane, isoflurane, and sevoflurane dissolved in acetonitrile with enflurane as an internal standard.

[4] = target: T2, hTRPA1 (Homo sapiens, UniProt O75762); assay: AITC-evoked currents in TRPA1-expressing Xenopus oocytes; type: cell-based; settings: VGAs 0.5-0.65 mM, AITC 10 μM
T2 construct: expressed in transfected cells; host or cells: Xenopus laevis oocytes (injected)
Protocol: as §1

[5] = rat at 37° C.; cited from earlier work
[6] = target: T3, mutant S502A/S800A TRPV1 (Rattus norvegicus, UniProt O35433, S502A/S800A); assay: Heat activation in oocytes expressing mutant S502A/S800A TRPV1; type: cell-based
T3 construct: expressed in transfected cells; host or cells: Xenopus laevis oocytes (cRNA injection)
Protocol: Oocyte electrophysiology. […] Oocytes were placed in a Perspex chamber and continuously superfused (5 ml min-1) with Ca2+-free solution containing (in mM): 100 NaCl, 2.5 KCl, 5 HEPES, 1 MgCl2 and titrated to pH 7.3 with 5 mM NaOH. For solutions <pH 6.0, HEPES was replaced with either 5 mM MES or 5 mM sodium citrate. Oocytes were routinely voltage-clamped at -60 mV at 22-23° C.

T1 sequence (Q6RI86 whole entry): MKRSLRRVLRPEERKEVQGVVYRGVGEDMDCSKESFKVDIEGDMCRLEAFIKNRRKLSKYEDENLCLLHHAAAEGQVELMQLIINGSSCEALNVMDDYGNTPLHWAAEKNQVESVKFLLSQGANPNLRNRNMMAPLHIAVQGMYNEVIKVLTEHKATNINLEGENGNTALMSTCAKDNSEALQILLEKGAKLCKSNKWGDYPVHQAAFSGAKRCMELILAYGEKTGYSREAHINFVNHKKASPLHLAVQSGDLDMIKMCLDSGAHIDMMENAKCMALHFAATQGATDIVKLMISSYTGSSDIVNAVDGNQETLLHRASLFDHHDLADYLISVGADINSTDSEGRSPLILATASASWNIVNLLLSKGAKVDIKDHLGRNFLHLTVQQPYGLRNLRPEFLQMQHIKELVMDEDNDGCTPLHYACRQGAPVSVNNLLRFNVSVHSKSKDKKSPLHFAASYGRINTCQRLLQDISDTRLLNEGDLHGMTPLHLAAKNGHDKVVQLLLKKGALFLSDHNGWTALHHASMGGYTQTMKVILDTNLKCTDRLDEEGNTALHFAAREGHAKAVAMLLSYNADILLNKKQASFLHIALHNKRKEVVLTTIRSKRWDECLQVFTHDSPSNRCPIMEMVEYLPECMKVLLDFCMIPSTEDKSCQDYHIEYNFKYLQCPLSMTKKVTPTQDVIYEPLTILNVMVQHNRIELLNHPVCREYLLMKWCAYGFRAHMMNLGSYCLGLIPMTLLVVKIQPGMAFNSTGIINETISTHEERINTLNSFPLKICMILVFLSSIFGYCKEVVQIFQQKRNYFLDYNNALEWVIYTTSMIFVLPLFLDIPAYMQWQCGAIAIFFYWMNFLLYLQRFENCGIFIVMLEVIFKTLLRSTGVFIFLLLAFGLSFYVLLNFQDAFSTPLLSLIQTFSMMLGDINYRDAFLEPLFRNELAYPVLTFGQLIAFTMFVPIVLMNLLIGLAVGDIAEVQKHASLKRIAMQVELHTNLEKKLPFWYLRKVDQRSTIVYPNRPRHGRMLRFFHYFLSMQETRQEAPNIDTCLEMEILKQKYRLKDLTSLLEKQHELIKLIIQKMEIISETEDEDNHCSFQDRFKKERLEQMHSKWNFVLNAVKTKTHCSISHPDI
TRPV1, sequence (O35433 whole entry, the tested form may be a part): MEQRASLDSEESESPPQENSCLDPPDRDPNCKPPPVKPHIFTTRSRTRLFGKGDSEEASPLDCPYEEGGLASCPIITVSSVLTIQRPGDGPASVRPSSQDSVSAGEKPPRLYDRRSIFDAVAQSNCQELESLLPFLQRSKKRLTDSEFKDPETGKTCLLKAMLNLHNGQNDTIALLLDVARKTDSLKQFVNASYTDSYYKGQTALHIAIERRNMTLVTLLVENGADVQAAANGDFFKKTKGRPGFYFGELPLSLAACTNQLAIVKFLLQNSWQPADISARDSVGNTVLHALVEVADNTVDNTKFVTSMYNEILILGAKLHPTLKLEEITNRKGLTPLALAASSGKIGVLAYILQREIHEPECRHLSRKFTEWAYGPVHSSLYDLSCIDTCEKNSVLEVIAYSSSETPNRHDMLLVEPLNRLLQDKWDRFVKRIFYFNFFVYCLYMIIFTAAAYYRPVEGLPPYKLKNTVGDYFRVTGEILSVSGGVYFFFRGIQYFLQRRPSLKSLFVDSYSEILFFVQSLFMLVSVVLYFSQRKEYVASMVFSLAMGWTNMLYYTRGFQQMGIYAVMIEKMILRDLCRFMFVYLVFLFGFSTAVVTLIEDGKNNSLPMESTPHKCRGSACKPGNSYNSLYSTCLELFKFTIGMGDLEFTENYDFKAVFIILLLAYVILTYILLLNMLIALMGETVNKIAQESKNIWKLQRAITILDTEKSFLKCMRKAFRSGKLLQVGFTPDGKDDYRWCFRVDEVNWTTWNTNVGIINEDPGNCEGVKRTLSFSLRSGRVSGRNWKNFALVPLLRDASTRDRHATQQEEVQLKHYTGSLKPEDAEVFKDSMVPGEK
T2 sequence (O75762 whole entry): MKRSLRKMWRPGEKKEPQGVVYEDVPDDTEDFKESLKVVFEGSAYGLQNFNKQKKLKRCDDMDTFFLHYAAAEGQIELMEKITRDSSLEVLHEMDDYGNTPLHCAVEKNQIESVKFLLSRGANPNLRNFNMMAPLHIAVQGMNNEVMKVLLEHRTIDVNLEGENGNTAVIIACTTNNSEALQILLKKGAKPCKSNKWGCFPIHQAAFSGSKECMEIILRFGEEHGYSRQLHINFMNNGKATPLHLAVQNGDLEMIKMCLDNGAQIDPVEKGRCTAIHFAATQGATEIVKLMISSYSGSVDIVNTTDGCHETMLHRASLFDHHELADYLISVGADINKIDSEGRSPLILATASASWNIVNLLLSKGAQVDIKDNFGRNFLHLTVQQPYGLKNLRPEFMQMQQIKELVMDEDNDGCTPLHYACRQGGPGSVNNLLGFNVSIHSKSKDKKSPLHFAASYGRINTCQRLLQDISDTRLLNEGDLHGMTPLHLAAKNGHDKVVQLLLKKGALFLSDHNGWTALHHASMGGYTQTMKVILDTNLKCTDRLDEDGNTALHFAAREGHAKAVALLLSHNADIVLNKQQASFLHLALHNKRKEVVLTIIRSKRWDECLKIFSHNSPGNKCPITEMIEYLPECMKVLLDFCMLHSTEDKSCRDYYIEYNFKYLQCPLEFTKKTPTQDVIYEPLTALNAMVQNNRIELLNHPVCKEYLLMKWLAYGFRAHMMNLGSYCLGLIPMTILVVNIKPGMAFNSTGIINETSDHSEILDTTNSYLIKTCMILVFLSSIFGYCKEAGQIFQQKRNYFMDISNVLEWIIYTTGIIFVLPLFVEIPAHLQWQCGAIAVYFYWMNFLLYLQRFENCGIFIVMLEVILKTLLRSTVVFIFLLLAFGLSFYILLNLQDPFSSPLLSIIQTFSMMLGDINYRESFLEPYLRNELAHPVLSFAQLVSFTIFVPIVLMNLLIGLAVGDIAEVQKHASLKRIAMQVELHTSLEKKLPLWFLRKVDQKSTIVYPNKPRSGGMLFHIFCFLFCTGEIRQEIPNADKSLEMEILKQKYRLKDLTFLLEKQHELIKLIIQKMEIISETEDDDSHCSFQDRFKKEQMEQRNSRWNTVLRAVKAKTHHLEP
T3 sequence (O35433 whole entry S502A/S800A): as the sequence (O35433 whole entry, the tested form may be a part) above, with S502A, S800A counted along it

SMILES: FC(F)OC(F)C(F)(F)F (centres unmarked) [desflurane]
- Activation of TRPA1 currents by VGAs [1]: robustly activated
- TRPA1 single-channel conductance in presence of VGA [2]: ≈ 80 pS
- Increase in maximal open probability of TRPA1 ([2]; cell-attached patches): > 6 fold
- V1/2 of TRPA1 open probability in presence of desflurane ([2]; cell-attached patches, shifted from 72.1 mV): 42.5 mV
- Single TRPA1 channel activity [2]: enhanced single-channel gating; also recorded: activate single TRPA1 channels
- Enhancement of proton-evoked currents compared with isoflurane and sevoflurane ([3]; VGAs 0.6 mM, pH 5.5): significantly more
- Effect on AITC-evoked currents [4]: markedly enhanced
- 1 MAC equivalent aqueous concentration (published conversion factor) [5]: 0.51 mM

SMILES: FC(F)OC(Cl)C(F)(F)F (centres unmarked) [isoflurane]
- Activation of TRPA1 after AITC treatment [1]: failed to activate
- Activation of TRPA1 currents by VGAs [1]: produced inward currents; also recorded: robustly activated
- TRPA1 response at high concentration ([1]; 2.7 mM, additional blocking mechanism): reduced
- EC50 of TRPA1 activation expressed in MAC ([1]; HEK293 cells): 0.57 MAC
- Hill coefficient of TRPA1 activation ([1]; HEK293 cells): 1.6±0.2
- EC50 ([1]; HEK293 cells, read-out: EC50 of TRPA1 activation): 180 ± 20 µM
- Effect on TRPA1 when applied together with saturating octanol ([1]; isoflurane 0.9 mM + octanol 1.8 mM): negligible effects
- Activation of TRPA1 at holding potential −50 mV ([1]; isoflurane 0.9 mM, octanol 1 mM): selectively activated
- Concentration at peak of bimodal dose-response relationship ([1]; reduction at higher concentrations): ≈ 1 mM
- TRPA1 single-channel conductance in presence of VGA [2]: ≈ 60 pS
- Single TRPA1 channel activity [2]: enhanced single-channel gating; also recorded: activate single TRPA1 channels
- Temperature threshold of TRPV1 heat activation ([3]; 0.5 mM isoflurane): 43 °C
- Temperature threshold of TRPV1 heat activation ([3]; 0.9 mM isoflurane): 40 °C
- Enhancement of maximal proton-evoked current ([3]; isoflurane 0.9 mM): approximately 3 fold
- Temperature threshold of TRPV1 heat activation after PDBu application ([3]; isoflurane 0.9 mM after PDBu, control 45.9±0.2): 32.8±0.8 °C
- Enhancement of currents evoked by pH 5.5 solution ([3]; isoflurane 0.9 mM, n=4): approximately 10 fold
- Maximal proton response as % of 10 μM capsaicin ([3]; isoflurane 0.9 mM, control 14.3%): 32.2%
- Temperature threshold, mutant S502A/S800A TRPV1 ([6]; PDBu+isoflurane, n=3): 37.3±0.7 °C
- Temperature threshold, mutant S502A/S800A TRPV1 ([6]; isoflurane, n=5): 39.4±1.9 °C
- Effect on AITC-evoked currents [4]: markedly enhanced
- 1 MAC equivalent aqueous concentration (published conversion factor) [5]: 0.31 mM
